From patent US10889572B2, “Reactive oxygen species scavengers and use for treating diseases” (XW LABORATORIES INC., priority 2017, dated 2021) come the findings set out here.

Usually EC50 stands for the midpoint of the concentration-response curve.

The assay deals with HT-1080 (fibrosarcoma) cells. As to the kind of experiment: Primary screening by ferroptosis assay (Erastin-induced, cell viability, CellTiter-Glo). It is filed as cell-based. To be noted: HT-1080 cells, % remaining activity, read-out: EC50, Inhibition for Ferroptosis in HT-1080 Cell. The protocol:
Cell Lines and Media: HT-1080 (fibrosarcoma) cells were obtained from American Type Culture Collection. Cells were grown in EMEM media, 10% Heat-Inactivated FBS, and penicillin-streptomycin mix (Invitrogen). Cells were maintained at 37° C. and 5% CO2 in a tissue culture incubator.
Cell Viability Assay: Seed 10,000 cell/well of HT-1080 cells with 195 μL growth media in black and clear bottom 96-well plates (Cat #Corning 3904) and allow cells to adhere overnight. The next day, dilute test compound by 2-fold dilution into 12 points with medium containing 400 μM Erastin. Transfer 5 μL of compounds solution into growth medium in triplicated wells. 30 hours later, add Cell Titer-Glo® Luminescent cell viability assay reagent (Cat #, Promega G8081) to measure HT-1080 cell viability according to the manufacture protocol. Briefly, aspirate 100 μL medium, and add 50 μL CellTiter-Glo® Luminescent reagent to each well and incubated for 30 minutes at room temperature to stabilize the Luminescent signal. Seal the plates and centrifuged for 1 minute at 1,000 rpm to remove bubbles. Shake the plates for 1 minute on an orbital shaker. Read the plate to detect Luminescent signal with EnSpire Multimode Plate Reader (PerkinElmer). The remaining activity % is used to evaluate Erastin induced ferroptosis in HT-1080 cells and expressed as the following formula: % Remaining Activity−100×[(Sample−Backgroundavg)/(Vehicle−Background avg)]
Sample: Readout from the test compound
Vehicle: Readout from the vehicle sample
Background: Readout from the Erastin only treatment
Dose response curve is graphed by using the non-linear regression analysis (formula equation 201) in XLFit (Excel add-in software) for the average % remaining activity from triplicates, and the EC50 values is then calculated. In this anti-ferroptosis assay, ferrostatin-1, and XJB-5-131 are included as reference. The acceptance criteria were set based on historical result, mean±2.58*SD in logarithmic scale, meanwhile Z′>0.5.

SMILES strings stand for the structures. Structures can show the parent of a compound that is named as a salt. Where two headings read alike, the source gives them in different places. A value given as a limit tells only on which side of the number the result lay.

`CC(C)C[C@H](N)/C=C/[C@H](Cc1ccccc1)C(=O)N1CCC[C@H]1C(=O)N[C@H](C(=O)N[C@@H](CCCNC(=O)OCc1ccccc1)C(=O)NC1CC(C)(C)N(O)C(C)(C)C1)C(C)C` [Example XV, Benzyl N-[(4S)-4-[(2S)—2-{[(2S)-1-[(2S,3E,5S)-5-amino-2-benzyl-7-methyloct-3-enoyl]pyrrolidin-2-yl]formamido}-3-methylbutanamido]-4-[(1-hydroxy-2,2,6,6-tetramethylpiperidin-4-yl)carbamoyl]butyl]carbamate trifluoroacetic acid salt]: the EC50 (Homo sapiens, 30 hours) worked out at 2.23 µM.
Consider `CC(C)C[C@@H](/C=C/[C@H](Cc1ccccc1)C(=O)N1CCC[C@H]1C(=O)N[C@H](CCCCNC(=O)OC1CC(C)(C)N(O)C(C)(C)C1)C(=O)O)NC(=O)OC(C)(C)C` [XXXIV, (2R)—2-{[(2S)-1-[(2S,3E,5S)-2-benzyl-5-{[(tert-butoxy)carbonyl]amino}-7-methyloct-3-enoyl]pyrrolidin-2-yl]formamido}-6-({[(1-oxyl-2,2,6,6-tetramethylpiperidin-4-yl)oxy]carbonyl}amino)hexanoic acid], for which, where the note is “Homo sapiens, HT-1080, 30 h”, the EC50 was more than 4 µM.
With `CC(C)C[C@@H](/C=C/[C@H](Cc1ccccc1)C(=O)N1CCC[C@H]1C(=O)N[C@@H](CCCNC(=O)OC(C)(C)C)C(=O)NC1CC(C)(C)N([O])C(C)(C)C1)NC(=O)OC(C)(C)C` [Example XX, tert-Butyl N-(4-{[(2S)-1-[(2R,3E,5S)-2-benzyl-5-{[(tert-butoxy)carbonyl]amino}-7-methyloct-3-enoyl]pyrrolidin-2-yl]formamido}-4-[(1-oxyl-2,2,6,6-tetramethylpiperidin-4-yl)carbamoyl]butyl)carbamate], the EC50 (30 hours) is 0.532 µM.
Take `Cc1cc(O)cc(C)c1CNC(=O)[C@H](CCCNC(=O)OCc1ccccc1)NC(=O)[C@@H]1CCCN1C(=O)[C@H](/C=C/[C@H](CC(C)C)NC(=O)OC(C)(C)C)Cc1ccccc1` [Example XXIV, Benzyl N-[(4S)—4-{[(2S)-1-[(2S,3E,5S)-2-benzyl-5-{ [(tert-butoxy)carbonyl]amino}-7-methyloct-3-enoyl]pyrrolidin-2-yl]formamido}-4-{[(4-hydroxy-2,6-dimethylphenyl)methyl]carbamoyl}butyl]carbamate]: where the note is “Homo sapiens, HT-1080, 30 h”, the EC50 is more than 4 µM.
Consider `CC(C)C[C@@H](/C=C/[C@H](Cc1ccccc1)C(=O)N1CCC[C@H]1C(=O)N1CCC[C@H]1C(=O)N[C@@H](CCCNC(=O)OCc1ccccc1)C(=O)NC1CC(C)(C)N(O)C(C)(C)C1)NC(=O)OC(C)(C)C` [Example XI, Benzyl N-[(4S)-4-1-{[(2S)-1-[(2S)-1-[(2R,3E,5S)-2-benzyl-5-{[(tert-butoxy)carbonyl]amino}-7-methyloct-3-enoyl]pyrrolidine-2-carbonyl]pyrrolidin-2-yl]formamido}-4-[(1-hydroxy-2,2,6,6-tetramethylpiperidin-4-yl)carbamoyl]butyl]carbamate], for which the EC50 (Homo sapiens, HT-1080, 30 h) amounted to 0.526 µM.
In the case of `CC(C)C[C@@H](/C=C/[C@H](Cc1ccccc1)C(=O)N1CCC[C@H]1C(=O)N[C@@H](C)C(=O)N[C@@H](CCCNC(=O)OCc1ccccc1)C(=O)NC1CC(C)(C)N(O)C(C)(C)C1)NC(=O)OC(C)(C)C` [Example XIV, Benzyl N-[(4S)-4-[(2S)—2-{[(2S)-1-[(2S,3E,5S)-2-benzyl-5-{[(tert-butoxy)carbonyl]amino}-7-methyloct-3-enoyl]pyrrolidin-2-yl]formamido}propanamido]-4-[(1-hydroxy-2,2,6,6-tetramethylpiperidin-4-yl)carbamoyl]butyl]carbamate], for the setting “Homo sapiens, HT-1080, 30 h”, the EC50 worked out at 0.515 µM.
Same read-out and setting: with `CC(C)C[C@@H](/C=C/[C@H](Cc1ccccc1)C(=O)N1CCC[C@H]1C(=O)N[C@@H](CCCCNC(=O)OC1CC(C)(C)N(O)C(C)(C)C1)C(=O)NC(C)C)NC(=O)OC(C)(C)C` [Example XXXVII, tert-Butyl N-[(4S,5E,7S)-7-benzyl-8-[(2S)—2-{[(1S)-5-({[(1-oxyl-2,2,6,6-tetramethylpiperidin-4-yl)oxy]carbonyl}amino)-1-[(propan-2-yl)carbamoyl]pentyl]carbamoyl}pyrrolidin-1-yl]-2-methyl-8-oxooct-5-en-4-yl]carbamate] the figure was 0.201 µM.
Same read-out and setting: with `CC(C)C[C@@H](/C=C/[C@H](Cc1ccccc1)C(=O)N1CCC[C@H]1C(=O)N[C@@H](CCCCNC(=O)OC1CC(C)(C)N(O)C(C)(C)C1)C(=O)NC(C)(C)C)NC(=O)OC(C)(C)C` [Example XXXVI, tert-Butyl N-[(4S,5E,7S)-7-benzyl-8-[(2S)—2-{[(1S)-1-(tert-butylcarbamoyl)-5-({[(1-oxyl-2,2,6,6-tetramethylpiperidin-4-yl)oxy]carbonyl}amino)pentyl]-carbamoyl}pyrrolidin-1-yl]-2-methyl-8-oxooct-5-en-4-yl]carbamate] the figure was 0.142 µM.
`CC(C)C[C@@H](/C=C/[C@H](Cc1ccccc1)C(=O)N1CCC[C@H]1C(=O)N[C@@H](CCCNC(=O)OCc1ccccc1)C(=O)OC1CC(C)(C)N(O)C(C)(C)C1)NC(=O)OC(C)(C)C` [Example XXXXI, (S)-1-hydroxy-2,2,6,6-tetramethylpiperidin-4-yl 2-((S)-1-((2S,5S,E)-2-benzyl-5-((tert-butoxycarbonyl)amino)-7-methyloct-3-enoyl)pyrrolidine-2-carboxamido)-5-(((benzyloxy)carbonyl)amino)pentanoate]: the EC50 (30 hours) was determined as 0.139 µM.
The same measure, in the same setting: with `COC(=O)[C@H](CCCNC(=O)OC1CC(C)(C)N(O)C(C)(C)C1)NC(=O)[C@@H](NC(=O)[C@@H]1CCCN1C(=O)[C@H](/C=C/[C@H](CC(C)C)NC(=O)OC(C)(C)C)Cc1ccccc1)C(C)C` [XXXIX, (S)-methyl 2-((S)-2-((S)-1-((2S,5S,E)-2-benzyl-5-((tert-butoxycarbonyl)amino)-7-methyloct-3-enoyl)pyrrolidine-2-carboxamido)-3-methylbutanamido)—5-((((1-hydroxy-2,2,6,6-tetramethylpiperidin-4-yl)oxy)carbonyl)amino)pentanoate] the figure was 0.142 µM.
With `CC(C)C[C@@H](/C=C/[C@H](Cc1ccccc1)C(=O)N1CCC[C@@H]1C(=O)N[C@@H](CCCNC(=O)OCc1ccccc1)C(=O)NC1CC(C)(C)N(O)C(C)(C)C1)NC(=O)OC(C)(C)C` [Example XVII, Benzyl N-[(4S)—4-{[(2R)-1-[(2S,3E,5S)-2-benzyl-5-{[(tert-butoxy)carbonyl]amino}-7-methyloct-3-enoyl]pyrrolidin-2-yl]formamido}-4-[(1-hydroxy-2,2,6,6-tetramethylpiperidin-4-yl)carbamoyl]butyl]carbamate], the EC50 (Homo sapiens, HT-1080, 30 h) was found to be 0.284 µM.
Turning to `CC(C)C[C@@H](/C=C/[C@H](Cc1ccccc1)C(=O)N1CCC[C@H]1C(=O)N[C@@H](CCCNC(=O)OC1CC(C)(C)N(O)C(C)(C)C1)C(=O)OC(C)C)NC(=O)OC(C)(C)C` [Example XXX, Propan-2-yl (2S)—2-{[(2S)-1-[(2S,3E,5S)-2-benzyl-5-{[(tert-butoxy)carbonyl]amino}-7-methyloct-3-enoyl]pyrrolidin-2-yl]formamido}-5-({[(1-hydroxy-2,2,6,6-tetramethylpiperidin-4-yl)oxy]carbonyl}amino)pentanoate], the EC50 (30 hours) worked out at 0.046 µM.
In the case of `CC(C)C[C@@H](/C=C/[C@H](Cc1ccccc1)C(=O)N1CCC[C@H]1C(=O)N[C@@H](CCCCNC(=O)C1CC(C)(C)N(O)C1(C)C)C(=O)OC(C)C)NC(=O)OC(C)(C)C` (stereo partly drawn) [Example XXXII, Propan-2-yl (2S)—2-{[(2S)-1-[(2S,3E,5S)-2-benzyl-5-{[(tert-butoxy)carbonyl]amino}-7-methyloct-3-enoyl]pyrrolidin-2-yl]formamido}-6-[(1-oxyl-2,2,5,5-tetramethylpyrrolidin-3-yl)formamido]-hexanoate], for the setting “Homo sapiens, HT-1080, 30 h”, the EC50 is 0.573 µM.
On the same count and under the same terms, then `CC(C)C[C@@H](/C=C/[C@H](Cc1ccccc1)C(=O)N1CCC[C@H]1C(=O)N[C@@H](CCCNC(=O)OCc1ccccc1)C(=O)OC1CC(C)(C)N(O)C(C)(C)C1)NC(=O)OC(C)(C)C` [Example XXXX, (S)-1-Oxyl-2,2,6,6-tetramethylpiperidin-4-yl 2-((S)-1-((2S,5S,E)-2-benzyl-5-((tert-butoxycarbonyl)amino)-7-methyloct-3-enoyl)pyrrolidine-2-carboxamido)-5-(((benzyloxy)carbonyl)amino)pentanoate], with 0.14 µM.
